Assays:
NPY Y2 receptor [1] = biological target: T1, NPY Y2 receptor (Homo sapiens, UniProt P49146); assay: Neuropeptide Y2 pKB assay (FLIPR, KAN-Ts cells stably expressing chimeric G proteins); assay type: cell-based; details: apparent pKB, modified Cheng-Prusoff correction
T1 sequence (P49146 1-381): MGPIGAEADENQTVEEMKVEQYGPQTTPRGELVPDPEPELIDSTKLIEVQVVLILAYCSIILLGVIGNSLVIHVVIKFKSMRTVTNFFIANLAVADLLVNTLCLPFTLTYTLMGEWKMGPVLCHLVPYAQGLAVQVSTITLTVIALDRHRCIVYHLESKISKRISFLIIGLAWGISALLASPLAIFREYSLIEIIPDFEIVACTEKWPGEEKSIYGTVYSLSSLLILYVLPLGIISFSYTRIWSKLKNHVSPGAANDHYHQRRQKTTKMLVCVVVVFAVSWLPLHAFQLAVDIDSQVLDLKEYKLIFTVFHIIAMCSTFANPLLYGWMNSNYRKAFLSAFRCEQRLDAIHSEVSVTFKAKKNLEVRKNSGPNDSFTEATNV
Method: The assay was performed using the fluorimetric imaging plate reader (FLIPR) format as described in Dautzenberg, F. M., Biochemical Pharmacology 2005, 69, 1493.
KAN-Ts cells stably expressing chimeric G proteins were seeded at a density of 100,000 cells into poly-d-lysine coated 384-well blackwall, clear-bottom microtiter plates (Corning, N.Y.). One day later, the medium was removed and 50 μl loading medium DMEM high glucose, without serum, supplemented with 10 mM HEPES-acid, 0.1% BSA, 5 mM probenecid and 2 μM Fluo-3AM was added. Cells were loaded for 1 h at 37° C., washed twice with 50 μl assay buffer (5 mM HEPES-acid, 140 mM NaCl, 1 mM MgCl2, 5 mM KCl, 10 mM glucose) and then 30 μl assay buffer was added. Cells were further pre-incubated at room temperature before adding agonists or agonists plus antagonists in 20 μl assay buffer and then measured on a T-channel fluorometric imaging plate reader (FLIPR, Molecular Devices, Sunnyvale, Calif.). Antagonistic potency values were converted to apparent pKB values using a modified Cheng-Prusoff correction. Apparent pKB was calculated as pKB=−log IC50/1+[conc agonist/EC50].

NPY Y2 receptor [2] = biological target: T1, NPY Y2 receptor; assay: Neuropeptide Y2 radioligand binding assay ([125I]PYY, KAN-Ts membranes); design: endogenous in cells; host or cells: KAN-Ts cells (membrane preparation); details: for IC50: KAN-Ts membranes endogenously expressing Y2, [125I]PYY (80 pM), 1 h at rt; for Ki: apparent Ki=IC50/(1+C/KD)
Summary of the method: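 Membranes from KAN-Ts cells with endogenous Y2 receptors, incubated with 80 pM [125I]PYY ± compound for 1 h at rt in HEPES/NaCl/CaCl2/MgSO4 buffer, then filtered and counted. Nonspecific binding defined with […]. IC50 from sigmoidal fit; Ki = IC50/(1+C/KD).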

SMILES | Kb (NPY Y2 receptor [1]) [nM] | IC50 (NPY Y2 receptor [2]) [nM] | Ki (NPY Y2 receptor [2]) [nM]
CCC(CC)C(=O)Nc1ccc(N2CCN(C(c3ccccc3)c3nnc(C(CC)CC)o3)CC2)c(F)c1 (centres unmarked) [Compound 163, 2-Ethyl-N-[4-(4-{[5-(1-ethyl-propyl)-[1,3,4]oxadiazol-2-yl]-phenyl-methyl}-piperazin-1-yl)-3-fluoro-phenyl]-butyramide] | 100 | 20 | –
CCC(CC)C(=O)Nc1ccc(N2CCN(C(c3ccccc3)c3ccncc3)CC2)c(C#N)c1 (centres unmarked) [Compound 315, N-{3-Cyano-4-[4-(phenyl-pyridin-4-yl-methyl)-piperazin-1-yl]-phenyl}-2-ethyl-butyramide] | 50.1 | – | 4.4
CCc1nnc(C(c2ccccc2)N2CCN(c3ccc(NC(=O)C(CC)CC)cc3F)CC2)o1 (centres unmarked) [Compound 153, 2-Ethyl-N-(4-{4-[(5-ethyl-[1,3,4]-oxadiazol-2-yl)-phenyl-methyl]-piperazin-1-yl}-3-fluoro-phenyl)-butyramide] | 39.8 | 39 | –
CCC(CC)C(=O)Nc1ccc(N2CCN(C(c3ccccc3)c3nnc(C(C)C)o3)CC2)c(F)c1 (centres unmarked) [Compound 160, 2-Ethyl-N-(3-fluoro-4-{4-[(5-isopropyl-[1,3,4]-oxadiazol-2-yl)-phenyl-methyl]-piperazin-1-yl}-phenyl)-butyramide] | 100 | 43 | –
CCC(CC)C(=O)Nc1ccc(N2CCN(C(c3ccccc3)c3ccccc3)CC2)c(C#N)c1 [Compound 304, N-[4-(4-Benzhydryl-piperazin-1-yl)-3-cyano-phenyl]-2-ethyl-butyramide] | 501 | – | 4.7
CCc1nc(C(c2ccccc2)N2CCN(c3ccc(NC(=O)C(CC)CC)cc3F)CC2)no1 (centres unmarked) [Compound 236, 2-Ethyl-N-(4-{4-[(5-ethyl-[1,2,4]-oxadiazol-3-yl)-phenyl-methyl]-piperazin-1-yl}-3-fluoro-phenyl)-butyramide] | 15.8 | 23 | –
N#Cc1cc(NC(=O)C2CC2)ccc1N1CCN(C(c2ccccc2)c2cccnc2)CC1 (centres unmarked) [Compound 321, Cyclopropanecarboxylic acid {3-cyano-4-[4-(phenyl-pyridin-3-yl-methyl)-piperazin-1-yl]-phenyl}-amide] | 31.6 | – | 11
CCC(CC)C(=O)Nc1ccc(N2CCN(C(c3ccccc3)c3ncccn3)CC2)c(F)c1 (centres unmarked) [Compound 40, 2-Ethyl-N-{3-fluoro-4-[4-(phenyl-pyrimidin-2-yl-methyl)-piperazin-1-yl]-phenyl}-butyramide] | 100 | 52 | –
CCC(CC)C(=O)Nc1cc(F)c(N2CCN(C(c3ccccc3)c3ncco3)CC2)c(F)c1 (centres unmarked) [Compound 243, N-{3,5-Difluoro-4-[4-(oxazol-2-yl-phenyl-methyl)-piperazin-1-yl]-phenyl}-2-ethyl-butyramide] | 126 | 50 | –
CCc1noc(C(c2ccccc2)N2CCN(c3ccc(NC(=O)C(CC)CC)cc3F)CC2)n1 (centres unmarked) [Compound 1, 2-Ethyl-N-(4-{4-[(3-ethyl-[1,2,4]-oxadiazol-5-yl)-phenyl-methyl]-piperazin-1-yl}-3-fluoro-phenyl)-butyramide] | 35.5 | 27 | –
CCC(CC)C(=O)Nc1ccc(N2CCN(C(c3ccccc3)c3noc(-c4cccnc4)n3)CC2)c(F)c1 (centres unmarked) [Compound 238, 2-Ethyl-N-(3-fluoro-4-{4-[phenyl-(5-pyridin-3-yl-[1,2,4]-oxadiazol-3-yl)-methyl]-piperazin-1-yl}-phenyl)-butyramide] | 31.6 | 25 | –
CCC(CC)C(=O)Nc1ccc(N2CCN(C(c3ccccc3)c3ccccc3C)CC2)c(C#N)c1 (centres unmarked) [Compound 305, N-{3-Cyano-4-[4-(phenyl-o-tolyl-methyl)-piperazin-1-yl]-phenyl}-2-ethyl-butyramide] | 316 | – | 36
CCC(CC)C(=O)Nc1ccc(N2CCN(C(c3ccccc3)c3cccnc3)CC2)c(F)c1 (centres unmarked) [Compound 24, 2-Ethyl-N-{3-fluoro-4-[4-(phenyl-pyridin-3-yl-methyl)-piperazin-1-yl]-phenyl}-butyramide] | 79.4 | 40 | –
CCC(CC)C(=O)Nc1ccc(N2CCN(C(c3ccccc3)c3nc4ccccc4o3)CC2)c(C#N)c1 (centres unmarked) [Compound 166, N-{4-[4-(Benzooxazol-2-yl-phenyl-methyl)-piperazin-1-yl]-3-cyano-phenyl}-2-ethyl-butyramide] | 79.4 | 7 | –
CCC(CC)C(=O)Nc1ccc(N2CCN(C(c3ccccc3)c3cc(C)no3)CC2)c(F)c1 (centres unmarked) [Compound 230, 2-Ethyl-N-(3-fluoro-4-{4-[(3-methyl-isoxazol-5-yl)-phenyl-methyl]-piperazin-1-yl}-phenyl)-butyramide] | 25.1 | 12 | –
CCC(CC)C(=O)Nc1ccc(N2CCN(C(c3ccccc3)c3nc4ccccc4o3)CC2)c(F)c1 (centres unmarked) [Compound 165, N-{4-[4-(Benzooxazol-2-yl-phenyl-methyl)-piperazin-1-yl]-3-fluoro-phenyl}-2-ethyl-butyramide] | 100 | 18 | –
